{"source": "patent US20180203025A1", "about": "“HDL THERAPY MARKERS” (Cerenis Therapeutics Holding SA, priority 2014, published 2018)", "system": "ABCA1 mRNA in mouse macrophages (J774)", "test": "ABCA1 gene expression (real-time PCR) in J774 macrophages", "format": "cell-based", "description": "Use the same amount of cDNA for all samples (4 μl of 20 μL RT reaction on 0.5 or 1 μg RNA). For each sample (to be run in triplicate), sample the following into a nuclease-free 1.5-mL microcentrifuge tube (add the volume for 2 samples more to calculate the final volume of PCR reaction mix): 2× TaqMan® Gene Expression Master Mix: 10 μl; 20× TaqMan® Gene Expression Assay: 1 μl; Nuclease free H2O: 5 μl. Cap the tube and invert it several times to mix the reaction components. Centrifuge the tube briefly.\nJ774 were seeded on 6× well plates (300,000 cells/well) and loaded with oxidized-LDL without the use of ^3H-cholesterol. […] Gene expression was assayed using the protocols described in Sections 8.3.2 (RNA extraction); 8.3.4 (reverse transcription), and 8.3.5 (qPCR). ABCA1 gene expression was determined with Taqman probe Mm00442646.m1 according to the manufacturer's protocol. The reference gene used is HPRT1 (Taqman probe: Mm00446968.m1).\n(§1) J774 were seeded on 6 well plates (300,000 cells/well) and loaded with oxidized-LDL. […] Gene expression was assayed using the protocols described in Sections 8.3.2 (RNA extraction); 8.3.4 (reverse transcription), and 8.3.5 (qPCR). SR-BI gene (Taqman probe Mm00450234.m1), ABCG1 (Taqman probe Mm00437390.m1), SREBP1 (Taqman probe Mm01138344.m1) and ABCA1 (Taqman probe Mm00442646.m1) expression were determined according to the manufacturer's protocol. The reference gene used is HPRT1 (Taqman probe: Mm00446968.m1).\nThis study examined the kinetics of decreasing the mRNA level of ABCA1 in J774 macrophages. J774 were seeded on 6 well plates (300,000 cells/well) and loaded with oxidized-LDL. […] Gene expression was assayed using the protocols described in Sections 8.3.2 (RNA extraction); 8.3.4 (reverse transcription), and 8.3.5 (qPCR). ABCA1 (Taqman probe Mm00442646.m1) expression was determined according to the manufacturer's protocol. The reference gene used is HPRT1 (Taqman probe: Mm00446968.m1).\nas §1, with “(qPCR).” for “(qPCR). SR-BI gene (Taqman probe Mm00450234.m1),”, “Mm00437390.m1)” for “Mm00437390.m1), SREBP1 (Taqman probe Mm01138344.m1)”\nas §1, with “(qPCR).” for “(qPCR). SR-BI gene (Taqman probe Mm00450234.m1),”, “Mm00437390.m1)” for “Mm00437390.m1), SREBP1 (Taqman probe Mm01138344.m1)”\nJ774 were seeded on 6 well plates (600,000 cells/well) in DMEM 10% FCS. […] Medium was removed and the macrophages were washed with DMEM. […] Gene expression was assayed using the protocols described in Sections 8.3.2 (RNA extraction); 8.3.4 (reverse transcription), and 8.3.5 (qPCR). ABCG1 (Taqman probe Mm00437390.m1), ABCA1 (Taqman probe Mm00442646.m1) and SR-BI (Taqman probe Mm00450234.m1) expression were determined according to the manufacturer's protocol. The reference gene used is HPRT1 (Taqman probe: Mm00446968.m1).\nJ774 were seeded on 6 well plates (300,000 cells/well) in DMEM 2.5% FCS. […] The next day, medium was replaced by fresh DMEM supplemented with or without ApoA-I (25 or 250 μg/mL) to initiate ApoA-I cholesterol efflux for 2 hours. The experiment was stopped at different time points: 1) J774 stopped before addition of ApoA-I, 2) J774+DMEM (passive efflux for 2 hours), 3) J774+ApoA-I (25 μg/mL) for 2 hours and 4) J774+ApoA-I (250 μg/mL) for 2 hours. The RNA was extracted with the RiboPure™ kit according to the manufacturer's protocol."}
{"compound": "OC[C@H]1O[C@@H]2O[C@H]3[C@H](O)[C@@H](O)[C@@H](O[C@H]4[C@H](O)[C@@H](O)[C@@H](O[C@H]5[C@H](O)[C@@H](O)[C@@H](O[C@H]6[C@H](O)[C@@H](O)[C@@H](O[C@H]7[C@H](O)[C@@H](O)[C@@H](O[C@H]8[C@H](O)[C@@H](O)[C@@H](O[C@H]1[C@H](O)[C@H]2O)O[C@@H]8CO)O[C@@H]7CO)O[C@@H]6CO)O[C@@H]5CO)O[C@@H]4CO)O[C@@H]3CO", "note": "[β-cyclodextrin, reference compound]", "values": [{"measurement": "ABCA1 mRNA level", "setting": "Study O, 0.03 to 30 mM, 6 hours", "result": "dose-dependent decrease"}]}
{"compound": "CER-001: engineered recombinant human apolipoprotein A-I HDL with sphingomyelin and DPPG; protein-to-phospholipid ratio 1:2.7, 97% Sph and 3% DPPG", "values": [{"measurement": "ABCA1 mRNA expression", "setting": "Study A, oxidized-LDL loaded, 25, 250 and 1000 μg/mL, 6 hours", "result": "decreased the ABCA1 mRNA at all the doses"}, {"measurement": "dose for diminishing half of the ABCA1 level", "setting": "Study E, 6 hours", "result": "around 7.5 μg/mL"}, {"measurement": "time to decrease half of the ABCA1 mRNA level", "setting": "Study F, 25 or 250 μg/mL", "result": 4, "unit": "h"}, {"measurement": "ABCA1 mRNA level", "setting": "Study G, 250 μg/mL, 6 hours, without cAMP", "result": "decreased"}, {"measurement": "ABCA1 mRNA level (RQ)", "setting": "Study G, overnight cAMP 300 μM, then 250 μg/mL 6 hours", "result": 1}, {"measurement": "effect of cAMP activation on CER-001 dose decreasing ABCA1", "setting": "Study I", "result": "did not change the sufficient dose of CER-001"}, {"measurement": "dose of maximum decrease of ABCA1 mRNA level", "setting": "Study I, 6 hours", "result": "around 15 μg/mL"}, {"measurement": "doses at which decrease of ABCA1 mRNA level was observed", "setting": "Study I, 6 hours, presence or absence of cAMP", "result": "4 to 6", "unit": "µg/mL"}, {"measurement": "ABCA1 mRNA level", "setting": "Study J, 24 hours treatment, 250 μg/mL", "result": "decrease"}, {"measurement": "time for ABCA1 mRNA level to return to baseline after removal", "setting": "Study J, after 24 hours at 250 μg/mL", "result": "more than 8 hours"}, {"measurement": "ABCA1 mRNA level", "setting": "Study L, overnight pre-incubation at 250 μg/mL", "result": "strongly decreased the ABCA1 mRNA level"}]}
